# Test system: blood glucose
# Test: Oral glucose tolerance test (oGTT), hypoglycaemic effect in an animal model
# Type: in vivo, Wistar rats
# Conditions: oGTT in rats, result in words; FIG. 3 expressed as percent AUC vs control, n=5-6 per group
# Procedure: A standard means of testing extracts or novel chemical compounds for effects on blood sugar levels is the oGTT (Verspohl, 2002). This involves administering the extract, a blind control or a known anti-diabetic to different groups of a rat population and administering an […] dose of glucose to a sub-group of each group. The extracts were administered 30 minutes before the glucose. Blood samples were taken sublingually 0, 15, 30, 60 and 120 minutes after glucose administration or at 0, 30, 60, 120 and 180 minutes for baseline blood sugar levels. The sampling schedule described served both to track the effect of the extracts on baseline blood sugar levels over a longer period and to track the effect on blood sugar levels following a glucose load.
# All of the tested extracts, the blind control and the glibenclamide reference oral anti-diabetic contained propylene glycol as a solubilising agent and were administered orally via a feeding tube. […]
# The samples were centrifuged at 8600 U/min for 10 minutes. The plasma supernatant was then analysed using an autoanalyser (Merck, Darmstadt). […]
# Concentrations and kinetic data were analysed in Graphpad 4.0 (San Diego, USA) using one-way variance analysis (ANOVA) and the Newman-Keuls multiple comparison test. The area under the curve (AUC) was determined using the trapezoidal method without extrapolation beyond the final sampling point.
smiles,measurement,value
"COc1ccc(Cl)cc1C(=O)NCCc1ccc(S(=O)(=O)NC(=O)NC2CCCCC2)cc1 [glibenclamide, Glibenclamide]",hypoglycaemic effect,hypoglycaemic effect

# Reference: patent US10857193B2, “Extract formulation of Opuntia ficus indica” (FINZELBERG GMBH & CO. KG, priority 2007, dated 2020)
